Laboratory results reported in patent publication US20110014174A1, “Lysozyme, A Novel Vasodilator of Sepsis that can be inhibited by a Peroxidase and Hydroxyl Radical Scavengers” (UNIVERSITY OF MANITOBA, priority 2007, published 2011).
Entries after “also recorded” stand apart in the source; their conditions may differ.

Key:
[1] = tested on: phenylephrine contracted canine carotid artery ring preparation; assay: Contraction force and vasorelaxation in phenylephrine contracted canine carotid artery ring preparation; conditions: for force after HEPES buffer was added: ethanol 2×10^−7 mol/L control group, HEPES buffer instead of Lzm-S
[2] = tested on: Lzm-S-induced carotid artery vasodilation; assay: Prevention of Lzm-S-induced vasodilation by pretreatment agents in the carotid artery ring preparation; parameters: species or system canine; conditions: human Lzm-S 6.7×10^−7 mol/L; for inhibition of Lzm-S-induced vasodilation (words): pretreatment with the agent, phenylephrine contracted ring; for contraction after Lzm-S relative to the value post-L-NMMA treatment: L-NMMA 10^−3 mol/L treated group (n=8)

Row | Structure (SMILES) | force after HEPES buffer was added ([1]; 5 minutes) [grams] | force after HEPES buffer was added ([1]; 15 minutes) [grams] | force after HEPES buffer was added ([1]; 30 minutes) [grams] | contraction with ethanol as compared with the phenylephrine contraction alone ([1]; ethanol treated control group, ethanol highest concentration 2×10^−7 mol/L, before HEPES buffer) [grams] | initial effect of ethanol on force ([1]; higher concentrations of ethanol, before Lzm-S) | inhibition of Lzm-S-induced vasodilation (words) [2] | inhibition of Lzm-S-induced vasodilation (words) ([2]; listed as Ethanol) | contraction with L-NMMA treatment ([1]; L-NMMA 10^−3 mol/L added after phenylephrine plateau, before Lzm-S) [grams] | contraction after Lzm-S relative to the value post-L-NMMA treatment ([2]; 5 minutes) [%] | contraction after Lzm-S relative to the value post-L-NMMA treatment ([2]; 15 minutes) [%] | contraction after Lzm-S relative to the value post-L-NMMA treatment ([2]; 30 minutes, minus = below resting force) [%]
1 | CCO [ethanol] | 10.7±2.8 | 11±2.8 | 11±2.6 | 10±2.6 | initial vasoconstriction | inhibited the effect of lysozyme | markedly effective |  |  |  | 
2 | CNC(=N)NCCC[C@H](N)C(=O)O [L-NMMA, N^G-monomethyl-L-arginine] |  |  |  |  |  | did not inhibit lysozyme induced vasodilation; also recorded: did not Prevent Vasodilation |  | 8.1±3.5 | 37±22 | 13±16 | −0.3±1
